Measured values reported in publication PMC4373589 (Journal of medicinal chemistry, 2013).

Assays:
morphine dependent mice = assay: Opioid withdrawal assay in morphine-pelleted mice; format: in vivo; settings: morphine-pelleted mice; s.c.
morphine antinociception = assay: Warm-water tail flick assay, antagonism of morphine antinociception; format: in vivo; settings: antagonizing morphine (10 mg/kg) antinociception; s.c.; six mice

C=CCN1CC[C@]23c4c5ccc(O)c4O[C@H]2C(=O)CC[C@@]3(O)[C@H]1C5 [Naloxone, naloxone, reference compound]
Precipitated withdrawal symptoms, overall comparison (morphine dependent mice): even more significant syndrome
AD50 values (mg/kg (95% CL)) (morphine antinociception): 0.05 (0.03-0.09) mg/kg
